As a reminder, the EC50 is the concentration that produces a half-maximal response.

Assay [1] deals with SEB-exhausted human PBMCs. The assay can be described thus: cells. The class given is cell-based.
The subject of the next assay is SEB-restimulated PBMCs. The assay can be described thus: IFNγ production in SEB-restimulated PBMCs (Example 1). The class given is cell-based, human. The note with it: FIG. 5 (Inhibitor 3 at 10 μM). The text has this: The effect of USP9X inhibition on PBMCs that have been re-stimulated with SEB was also investigated. […] This is consistent with the notion that the SEB-restimulated T cells were in a state of exhaustion or rendered tolerant to SEB.

The test system of assay [2] is CD3/CD28 Activated T Cells. The assay can be described thus: anti-CD3/CD28 T cell activation assay (Example 2). The class given is cell-based. Conditions: FIG. 6. The protocol: (§1) Given the reported role of ITCH and Cbl-b in T cell tolerance and as a negative regulator of T-cell receptor (TCR)/[…] 28 (CD28) signaling, the effects of USP9X inhibition were evaluated in a CD3/CD28 activation assay and in a mixed lymphocyte reaction (MLR) assay.

Assay [3] concerns mixed lymphocyte reaction. The assay can be described thus: mixed lymphocyte reaction (MLR) assay (Example 2). The class given is cell-based. The note with it: FIG. 7. On the procedure:
as §1

The next assay concerns A375 melanoma cells. Put plainly: Allogeneic PBMC-mediated cytotoxicity of A375 melanoma cells, caspase 3/7 (Example 4). The class given is cell-based, human. Conditions: with SEB-stimulated PBMCs, FIG. 9A/9B. On the procedure:
A375 cells incubated alone, in the absence of SEB-stimulated PMBCs, with either compound had no significant effect on cellular apoptosis.

Assay [4] has as its system Human total T cells (CD3+). The assay can be described thus: Human T cell activation with CD3/CD28 activator, IFNγ ELISA (Example 6). The note with it: 4 days, two donors, FIGS. 11-12. The class given is cell-based. The protocol: Human total T cells (CD3+) were isolated using EasySep™ immunomagnetic beads (Stemcell Technologies) from healthy human PBMCs (Hemacare). Cells were stained with Cell Trace Violet proliferation dye (Invitrogen), and treated with agent or DMSO. Cells were also stimulated with a CD3/CD28 activator (Stemcell Technologies). After 4 days of incubation, cells and supernatant were collected; cells were washed with staining buffer (PBS with 2% FBS) twice and centrifuged (350 g for 5 min). Cells were stained with LIVE/DEAD stain (Invitrogen), FITC-CD4 (BD Pharmingen) and CD8 (BD Pharmingen) in 100 μL volume for 30 mins at 4° C. Cells were washed twice as described above, resuspended in 100 μL staining buffer and analyzed using a BD Canto II (BD Biosciences). Data was analyzed using FlowJo V10 (FlowJo LLC). Secreted IFNγ was measured by ELISA (Dakewe Biotech Co., Ltd). All data were analyzed by Graphpad Prism 6.0 (GraphPad Software).
For orientation: ELISA stands for enzyme-linked immunosorbent assay.

For the next assay, the system named is female BALB/c mice. Put plainly: SEB-induced peripheral tolerance in mice, spleen and splenocyte readouts (Example 7). The class given is in vivo. The protocol:
Peripheral tolerance/inactivation was induced in female BALB/c mice by a single intraperitoneal injection of 30 μg SEB. Mice were treated with a positive control (anti-CTLA4) or various doses of USP9X Inhibitor 3. Spleens and splenocytes were harvested at 24 hr after the last dose. […] No changes in IL-2 and IFNγ levels were detected in the supernatants from SEB-restimulated splenocytes.

[5] abbreviates: highest dose group, 24 hr after last dose.

Consider `CNC[C@H](C(=O)N1CC2=C(C1)CN(S(=O)(=O)c1ccc3c(c1)OCCO3)C2)c1cccc(Cl)c1` [USP9X Inhibitor 3, (2R)-2-(3-chlorophenyl)-1-[5-(2,3-dihydro-1,4-Benzodioxine-6-sulfonyl)-1H,2H,3H,4H,5H,6H-pyrrolo[3,4-c]pyrrol-2-yl]-3-(methylamino)propan-1-one], for which the “IFNγ production compared to DMSO or negative control compound 5” value in assay [1] was “significantly increase IFNγ production”. For the same compound, the EC50 is 100 to 1000 nM in assay [1] (Homo sapiens, PBMC, 48 h, read-out: EC50 value for IFNγ secretion) and 100 to 1000 nM in assay [3] (Lymphocyte, read-out: EC50 for IFNγ secretion in the MLR assay). For the same compound, the “IFNγ production following SEB-restimulation” value in the assay with SEB-restimulated PBMCs is “restored IFNγ production to varying degrees depending on the donor”. Also, the IFNγ production result is given as “the most profound effect” in assay [2] and “increased” in assay [4]. Further, the “IFNγ secretion in the MLR assay” value in assay [3] was “promoted IFNγ secretion”. For the same compound, in the assay with A375 melanoma cells, the “A375 apoptosis (caspase 3/7 activity)” value is reported as “enhanced A375 apoptosis in a concentration-dependent manner”. The “Spleen protein level of Cbl-b, reduction” value in the assay on female BALB/c mice (setting [5]) is recorded as 81%. In addition, in the assay on female BALB/c mice (setting [5]), the “Spleen protein level of ITCH, reduction” value is given as 64%. In addition, in the assay on female BALB/c mice (lower doses), the “Spleen protein levels of Cbl-b and ITCH” value is on record as “no notable changes”. The “IL-2 and IFNγ levels in supernatants from SEB-restimulated splenocytes” value in the assay with female BALB/c mice (splenocytes harvested 24 hr after last dose) is “No changes”.

Regarding `O=S(=O)(c1ccc(-c2ncco2)cc1)N1Cc2cnc(C(O)c3cccc(N4CCNCC4)c3)cc2C1` (stereo not shown) [USP9X Inhibitor 4, [2-[4-(1,3-oxazol-2-yl)benzenesulfonyl]-1H,2H,3H-pyrrolo[3,4-c]pyridin-6-yl][3-(piperazin-1-yl)phenyl] methanol], in assay [4], the IFNγ production result is “increased”.

For the origin of these results see US20210346356A1, “INHIBITING UBIQUITIN SPECIFIC PEPTIDASE 9X” (FORMA THERAPEUTICS, INC., priority 2018, published 2021).
